The values below come from ChEMBL document CHEMBL1201862, “PubChem BioAssay data set” (2004).

The structures appear in SMILES notation.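 Five compound concentrations were applied to cells in 96-well plates for 48 hours; endpoints were derived by simple linear interpolation of the resulting dose-response curve. GI50: concentration for 50% inhibition of growth.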 The source made the active and inactive calls. No stated cut-off is given here; in the data, active = GI50 up to about 1.1 µM and inactive = higher. A value given as a limit tells only on which side of the number the result lay.

Test systems include U-251; OVCAR-8; SW-620; EKVX; HOP-62; MDA-N; ACHN; SN12C; IGROV-1; HCT-15; DU-145; A498; LOX IMVI; UO-31; HOP-92; NCI-H522; SNB-75; SR; HT-29; BT-549.
What all share (assay): NCI tumour cell line growth inhibition, 48 h

On to `COc1ccc(-c2c(-c3ccc(OC)cc3)n3c(=O)n(C)c(=O)n23)cc1`, for which the GI50 in the assay on U-251 is > 100 µM (inactive); in the assay with OVCAR-8, 17.6 µM (inactive); in the assay on SW-620, > 100 µM (inactive); with EKVX, 34.9 µM (inactive); in the assay on HOP-62 it was 22.7 µM (inactive); with MDA-N it was > 10 µM (inactive). Further, the GI50 is 67.1 µM (inactive) in the assay with ACHN; 34 µM (inactive) in the assay with SN12C; > 100 µM (inactive) in the assay on IGROV-1; 81.5 µM with HCT-15; 15.6 µM (inactive) in the assay with DU-145; 19.4 µM (inactive) with A498. The GI50 in the assay on LOX IMVI was > 100 µM (inactive); with UO-31, 32.3 µM (inactive); in the assay on HOP-92 it was 18.8 µM (inactive); in the assay with NCI-H522, > 100 µM (inactive); in the assay with SNB-75, > 100 µM (inactive).

As to `O=C(C=P(c1ccccc1)(c1ccccc1)c1ccccc1)c1ccc(-c2ccc(F)cc2F)cc1`, the GI50 is 3.41 µM (inactive) in the assay on U-251; 3.44 µM (inactive) in the assay on SR; 3.58 µM (inactive) in the assay with SW-620; 3.17 µM (inactive) in the assay on EKVX; 3.79 µM (inactive) in the assay on HOP-62; 2.78 µM (inactive) in the assay with MDA-N. The GI50 is 2.44 µM (inactive) in the assay on ACHN; 2.31 µM (inactive) in the assay on SN12C; 2.29 µM in the assay on HCT-15; 3.1 µM (inactive) with DU-145; 2.18 µM (inactive) in the assay on HT-29; 2.64 µM (inactive) in the assay with A498. The GI50 was 2 µM (inactive) in the assay with LOX IMVI, 1.77 µM (inactive) in the assay with UO-31 and 2.19 µM (inactive) in the assay on HOP-92.

Turning to `Cn1nc(S(N)(=O)=O)s/c1=N/S(=O)(=O)c1ccc(N)cc1`, the GI50 in the assay on U-251, in the assay with OVCAR-8, in the assay on SW-620, with EKVX, with HOP-62 and with ACHN was > 100 µM (inactive) in each case. The GI50 was > 100 µM (inactive) in the assay with BT-549; over 100 µM in the assay with HCT-15; > 100 µM (inactive) with DU-145; > 100 µM (inactive) in the assay with HT-29; > 100 µM (inactive) in the assay with A498; > 100 µM (inactive) in the assay with UO-31. Besides, the GI50 in the assay on HOP-92 and in the assay on SNB-75 was > 100 µM (inactive) throughout.

As for `CCc1cccc(CC)c1NC(=O)/C(Cl)=C(/Cl)C(=O)O`, the GI50 was > 58.2 µM (inactive) in the assay with U-251; 18.4 µM (inactive) in the assay with OVCAR-8; > 44.3 µM (inactive) with SR; 21.2 µM (inactive) in the assay with SW-620; > 56.6 µM (inactive) in the assay with EKVX; > 100 µM (inactive) with HOP-62. For the same compound, the GI50 with ACHN was 26.9 µM (inactive); in the assay on SN12C, 31.1 µM (inactive); in the assay on IGROV-1 it was 32.2 µM (inactive); in the assay on HCT-15, 19.4 µM; with HT-29, 35 µM (inactive); with A498, > 100 µM (inactive). The GI50 is > 100 µM (inactive) in the assay with LOX IMVI; 32.4 µM (inactive) in the assay on UO-31; 21.7 µM (inactive) in the assay with HOP-92; 10.2 µM (inactive) in the assay on NCI-H522; 43.9 µM (inactive) in the assay with SNB-75.

Take `c1ccc(-c2[nH]c(-c3ccccc3)c(-c3cnccn3)c2-c2cnccn2)cc1`: the GI50 with U-251 was > 100 µM (inactive); with OVCAR-8, > 100 µM (inactive); in the assay on SR, 82.8 µM (inactive); in the assay on SW-620, > 100 µM (inactive); in the assay with EKVX, > 100 µM (inactive); in the assay on HOP-62, > 100 µM (inactive). The GI50 in the assay on ACHN is > 100 µM (inactive); with SN12C, > 100 µM (inactive); with IGROV-1 it was > 100 µM (inactive); in the assay on HCT-15, over 100 µM; with HT-29, 91.2 µM (inactive); in the assay with A498, > 100 µM (inactive). Further, the GI50 was > 100 µM (inactive) with LOX IMVI; > 100 µM (inactive) in the assay with UO-31; > 100 µM (inactive) in the assay with HOP-92; > 100 µM (inactive) in the assay with NCI-H522; 31.9 µM (inactive) with SNB-75.

For `NNC(=S)N/N=C(\c1nc2ccc(Cl)cc2nc1O)C(O)c1ccc(Cl)cc1Cl` (stereo not drawn), the GI50 with U-251, with OVCAR-8, with SR, in the assay on SW-620, in the assay with EKVX and with HOP-62 was > 100 µM (inactive) throughout. For the same compound, the GI50 in the assay with ACHN is > 100 µM (inactive); with SN12C, > 100 µM (inactive); with IGROV-1, > 100 µM (inactive); in the assay with HCT-15, over 100 µM; in the assay with HT-29, > 100 µM (inactive); in the assay on A498, > 100 µM (inactive). The GI50 in the assay on LOX IMVI, in the assay with UO-31, in the assay on HOP-92, in the assay with NCI-H522 and in the assay with SNB-75 was > 100 µM (inactive) throughout.

With `Nc1ccc(S2(c3ccc(N)cc3)C=C(c3ccccc3)C(c3ccccc3)=C2)cc1`, the GI50 in the assay with U-251 is > 25 µM (inactive); in the assay with OVCAR-8, > 26.4 µM (inactive); in the assay with SR, > 45.5 µM (inactive); in the assay with SW-620, > 57.7 µM (inactive); with EKVX, > 100 µM (inactive); in the assay on HOP-62, 70.8 µM (inactive). Further, the GI50 is > 30.2 µM (inactive) in the assay with MDA-N; > 28.6 µM (inactive) in the assay on ACHN; > 25.3 µM (inactive) in the assay with SN12C; > 100 µM (inactive) in the assay with IGROV-1; over 54.2 µM in the assay on HCT-15; > 38.4 µM (inactive) in the assay with DU-145. The GI50 with HT-29 was > 44.7 µM (inactive); in the assay on A498 it was > 29.4 µM (inactive); in the assay with LOX IMVI, > 33.5 µM (inactive); in the assay on UO-31 it was > 40.6 µM (inactive); with HOP-92, 18.1 µM (inactive); in the assay with SNB-75, > 100 µM (inactive).

On to `CC(C)(C)c1cc[n+](C[n+]2ccc(C(C)(C)C)cc2)cc1`, for which the GI50 with U-251, in the assay on OVCAR-8, in the assay on SR, in the assay on SW-620, in the assay on EKVX and in the assay with HOP-62 was > 100 µM (inactive) throughout. For the same compound, the GI50 is > 100 µM (inactive) in the assay with MDA-N; > 100 µM (inactive) with ACHN; > 100 µM (inactive) in the assay on SN12C; > 100 µM (inactive) in the assay with IGROV-1; over 100 µM in the assay with HCT-15; > 100 µM (inactive) with DU-145. In addition, the GI50 in the assay on HT-29 is > 100 µM (inactive); in the assay on A498, 53.6 µM (inactive); in the assay with UO-31, > 100 µM (inactive); in the assay with HOP-92 it was > 100 µM (inactive); in the assay on NCI-H522, > 100 µM (inactive); in the assay with SNB-75 it was > 100 µM (inactive).

Take `CCCCN/N=N/c1cn(C2OC(CO)C(O)C2O)c(=O)[nH]c1=O` (stereo not drawn): the GI50 in the assay on OVCAR-8, with SR, in the assay with SW-620, in the assay on EKVX, in the assay with HOP-62 and in the assay with MDA-N was > 100 µM (inactive) throughout. The GI50 in the assay on ACHN was > 100 µM (inactive); in the assay with SN12C it was > 100 µM (inactive); in the assay with IGROV-1 it was > 100 µM (inactive); with HCT-15, over 100 µM; with DU-145 it was > 100 µM (inactive); with HT-29 it was > 100 µM (inactive). Besides, the GI50 in the assay on A498, in the assay with LOX IMVI and in the assay with NCI-H522 was > 100 µM (inactive) in each case.
